Measured values reported in patent publication US12285407B2, “Bis-indolylmethane derivatives and uses thereof” (The University of The West Indies, priority 2018, dated 2025).

Experiments:
[1] = system: Bacillus cereus; experiment: Adjuvant broth microdilution (antibiotic MIC with SP-BIM at 50 μg/mL); assay type: cell-based; settings: antibiotic alone, Table 9
[2] = system: clinical antibiotic resistant isolates of Enterococcus faecium; experiment: Checkerboard resistance breaking by SP-BIM 13; assay type: cell-based; settings: for FIC compound: SP-BIM 13 with the labelled antibiotic; for Interpretation / Σ FIC: antibiotic + SP-BIM 13; for MIC of antibiotic only: antibiotic alone; for FIC antibiotic: combination with SP-BIM 13; for MIC of antibiotic in combination: with SP-BIM 13 at rescue concentration
[3] = system: Escherichia coli O157:H7; experiment: Rescue concentrations of SP-BIM that reactivate antibiotic; assay type: cell-based
[4] = system: Escherichia coli O157:H7; assay type: cell-based; settings: antibiotic alone, no SP-BIM
[5] = system: clinical strains of Enterococcus faecium; experiment: Kirby Bauer disc diffusion susceptibility profile; assay type: cell-based; settings: for Zone of clearance: 35° C., 24 hours, average n=3; for Interpretive standard (resistant/susceptible): zones vs EUCAST breakpoints (Table 31)
[6] = system: Klebsiella pneumoniae; experiment: Adjuvant broth microdilution (antibiotic MIC with SP-BIM at 50 μg/mL); assay type: cell-based; settings: antibiotic alone
[7] = system: MRSA HS 10132; experiment: Systemic non-lethal MRSA infection in mice (organ MRSA load); assay type: in vivo
[8] = system: reference pathogen strains; experiment: Checkerboard synergy study, summary over pathogens; assay type: cell-based; settings: checkerboard with SP-BIM 13
[9] = system: Pseudomonas aeruginosa ATCC 27853; experiment: Broth microdilution MIC of SP-BIMs; assay type: cell-based; settings: ATCC27853, SP-BIM alone, read-out: MIC Pseudomonas aeruginosa ATCC 27853
[10] = system: Escherichia coli ATCC 35218; experiment: Broth microdilution MIC of SP-BIMs; assay type: cell-based; settings: ATCC35218, SP-BIM alone, read-out: MIC Escherichia coli ATCC 35218
[11] = in vitro; settings: human
[12] = system: Klebsiella pneumoniae ATCC 49472; experiment: Broth microdilution MIC of SP-BIMs; assay type: cell-based; settings: ATCC49472, SP-BIM alone, read-out: MIC Klebisella pneumoniae ATCC 49472
[13] = system: Gram-negative bacteria; experiment: Adjuvant broth microdilution; assay type: cell-based; settings: SP-BIM at 50 μg mL^−1
Protocol: To each well, the SP-BIM to be tested was added to a final concentration of 50 μg mL^−1. […] SP-BIMs were assessed as potential adjuvants based on their ability to reduce the MIC of the antibiotic against respective pathogen.

[14] = system: Candida albicans ATCC 22972; experiment: Broth microdilution MIC of SP-BIMs; assay type: cell-based; settings: ATCC22972, SP-BIM alone, read-out: MIC Candida albicans ATCC 22972
[15] = system: Streptococcus pyogenes ATCC 19615; experiment: Broth microdilution MIC of SP-BIMs; assay type: cell-based; settings: ATCC19615, SP-BIM alone, read-out: MIC Streptococcus pyogenes ATCC 19615
[16] = system: Enterococcus faecium ATCC 19434; experiment: Broth microdilution MIC of SP-BIMs; assay type: cell-based; settings: ATCC19434, SP-BIM alone, read-out: MIC Enterococcus faecium ATCC 19434
[17] = system: Staphylococcus aureus ATCC 12600; experiment: Broth microdilution MIC of SP-BIMs; assay type: cell-based; settings: ATCC12600, SP-BIM alone, read-out: MIC Staphylococcus aureus ATCC 12600
[18] = system: Corynebacterium diphtheriae ATCC 27010; experiment: Broth microdilution MIC of SP-BIMs; assay type: cell-based; settings: ATCC27010, SP-BIM alone, read-out: MIC Corynebacterium diphtheriae ATCC 27010

## CC1(C)S[C@@H]2[C@H](NC(=O)[C@H](N)c3ccccc3)C(=O)N2[C@H]1C(=O)O [Ampicillin, ampicillin]
[1]
  MIC of antibiotic, No Compound: >250 µg/mL
[2]; E. faecium strain 22870
  FIC compound: 0.128
  Interpretation: Synergy (Synergy: FICI≤0.5)
  Σ FIC: <0.14
  MIC of antibiotic only: 250 µg/mL
  FIC antibiotic: 0.008
  MIC of antibiotic in combination: 2 µg/mL
[2]; E. faecium strain RC63
  FIC compound: 0252
  Interpretation: Synergy (Synergy: FICI≤0.5)
  Σ FIC: <0.26
  MIC of antibiotic only: 250 µg/mL
  FIC antibiotic: 0.008
  MIC of antibiotic in combination: 2 µg/mL
[3]; E. coli O157:H7, with […] SP-BIM 27
  MIC of Ampicillin in combination with […] SP-BIM 27: 2 µg/mL
[3]; Escherichia coli, read-out: MIC of Ampicillin
  MIC: 16 µg/mL
[4]
  MIC of antibiotic, No Compound: 8 µg/mL
[5]; E. faecium strain 15134
  Zone of clearance: 37 mm
  Interpretive standard (resistant/susceptible): S
[5]; E. faecium strain 21024
  Zone of clearance: 32 mm
  Interpretive standard (resistant/susceptible): S
[5]; E. faecium strain 21955
  Zone of clearance: 32 mm
  Interpretive standard (resistant/susceptible): S
[5]; E. faecium strain 22003
  Zone of clearance: 37 mm
  Interpretive standard (resistant/susceptible): S
[5]; E. faecium strain 22870
  Zone of clearance: 10 mm
  Interpretive standard (resistant/susceptible): R
[5]; E. faecium strain 23227
  Zone of clearance: 26 mm
  Interpretive standard (resistant/susceptible): S
[5]; E. faecium strain 23230
  Zone of clearance: 36 mm
  Interpretive standard (resistant/susceptible): S
[5]; E. faecium strain 23668
  Zone of clearance: 39 mm
  Interpretive standard (resistant/susceptible): S
[5]; E. faecium strain 24169
  Zone of clearance: 33 mm
  Interpretive standard (resistant/susceptible): S
[5]; E. faecium strain RC63
  Zone of clearance: 12 mm
  Interpretive standard (resistant/susceptible): R
[6]; Klebsiella pneumonia, no SP-BIM
  MIC of antibiotic, No Compound: >250 µg/mL
[6]; Klebsiella pneumoniae, Table 7, read-out: MIC of antibiotic, No compound
  MIC: > 250 µg/mL
[7]; ampicillin only ([…] mg kg^−1), SP-BIM 9 study
  MRSA load in the spleen: 14,622 CFU g^−1
[7]; ampicillin only ([…] mg kg^−1), subcutaneous
  MRSA counts in liver: 3500 CFU mL^−1
[7]; ampicillin only, SP-BIM 9 study
  MRSA counts in the liver: 7605 CFU g^−1

## Oc1cc(C(c2c[nH]c3ccccc23)c2c[nH]c3ccccc23)cc(O)c1O [SP-BIM 13, 5-(di(1H-indol-3-yl)methyl)benzene-1,2,3-triol]
[8]; Gram-positive and Gram-negative pathogens
  reduction of most antibiotic MICs: reduced by tenfold or more
[8]
  interaction effect in combinations with trimethoprim: antagonistic
[9]
  MIC: 250 µg/mL
[10]
  MIC: > 250 µg/mL
[11]
  CC50: 750 µM
[12]
  MIC: > 250 µg/mL
[13]
  potentiating activity for Gram-negative bacteria: No potentiating activity was observed
[14]
  MIC: 250 µg/mL
[15]
  MIC: 125 µg/mL
[16]
  MIC: 125 µg/mL
[17]
  MIC: > 250 µg/mL
[7]; SP-BIM 13 only, both levels
  MRSA load in the spleen: did not significantly reduce
[7]; ampicillin ([…] mg kg^−1)+5 mg kg^−1 SP-BIM 13
  MRSA counts in liver: 7900 CFU mL^−1
[7]; ampicillin ([…] mg kg^−1)+10 mg kg^−1 SP-BIM 13
  MRSA counts in liver: 900 CFU mL^−1
[7]; ampicillin ([…] mg kg^−1)+25 mg kg^−1 SP-BIM 13
  MRSA counts in liver: 63 CFU mL^−1
[7]; ampicillin and SP-BIM 13 at 10 and 25 mg kg^−1, vs no treatment, ampicillin only, ampicillin+5 mg kg^−1
  MRSA load in the spleen: significantly lower
[18]
  MIC: > 250 µg/mL
